Like-named read-outs stand apart in the source and are kept apart here.
Tests used:
Test in all cases: DiscoverX KINOMEscan kinase profiling (468 assays)
Assay type in all cases: binding
human kinome [1] = target: human kinome (Homo sapiens, UniProt P42681); details: kinase TXK (Entrez TXK); compound concentration 1000 nM; read-out: Percent Control
Method in brief: (§1)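 DNA-tagged kinases competed for immobilized biotinylated ligands on streptavidin magnetic beads, with bound kinase quantified by qPCR. VIP152 in DMSO was tested against a DMSO control.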

human kinome [2] = target: human kinome (Homo sapiens, UniProt O43293); details: DAPK3; 100 nM; read-out: Percent Control
Method in brief: as §1

human kinome [3] = target: human kinome (Homo sapiens, UniProt P48730); details: CSNK1D; 100 nM; read-out: Percent Control
Method in brief: as §1

human kinome [4] = target: human kinome (Homo sapiens, UniProt P30291); details: kinase WEE1 (Entrez WEE1); compound concentration 1000 nM; read-out: Percent Control
Method in brief: as §1

human kinome [5] = target: human kinome (Homo sapiens, UniProt O14730); details: kinase RIOK3 (Entrez RIOK3); compound concentration 1000 nM; read-out: Percent Control
Method in brief: as §1

human kinome [6] = target: human kinome (Homo sapiens, UniProt Q9NY57); details: kinase YANK2 (Entrez STK32B); compound concentration 1000 nM; read-out: Percent Control
Method in brief: as §1

human kinome [7] = target: human kinome (Homo sapiens, UniProt O95819); details: MAP4K4; 100 nM; read-out: Percent Control
Method in brief: as §1

human kinome [8] = target: human kinome (Homo sapiens, UniProt Q9P1W9); details: read-out: Percent Control
Method in brief: as §1

human kinome [9] = target: human kinome (Homo sapiens, UniProt Q8IW41); details: MAPKAPK5; 100 nM; read-out: Percent Control
Method in brief: as §1

human kinome [10] = target: human kinome (Homo sapiens, UniProt Q9UBE8); details: read-out: Percent Control
Method in brief: as §1

human kinome [11] = target: human kinome (Homo sapiens, UniProt P08631); details: HCK; 100 nM; read-out: Percent Control
Method in brief: as §1

human kinome [12] = target: human kinome (Homo sapiens, UniProt Q04912); details: MST1R; 100 nM; read-out: Percent Control
Method in brief: as §1

human kinome [13] = target: human kinome (Homo sapiens, UniProt O00444); details: read-out: Percent Control
Method in brief: as §1

human kinome [14] = target: human kinome (Homo sapiens, UniProt Q8NE63); details: HIPK4; 100 nM; read-out: Percent Control
Method in brief: as §1

human kinome [15] = target: human kinome (Homo sapiens, UniProt P23443); details: kinase S6K1 (Entrez RPS6KB1); compound concentration 1000 nM; read-out: Percent Control
Method in brief: as §1

human kinome [16] = target: human kinome (Homo sapiens, UniProt Q8NI60); details: ADCK3 (Entrez CABC1); 100 nM; read-out: Percent Control
Method in brief: as §1

human kinome [17] = target: human kinome (Homo sapiens, UniProt Q8TD19); details: read-out: Percent Control
Method in brief: as §1

human kinome [18] = target: human kinome (Homo sapiens, UniProt P53350); details: read-out: Percent Control
Method in brief: as §1

human kinome [19] = target: human kinome (Homo sapiens, UniProt O75676); details: compound concentration 1000 nM, read-out: Percent Control
Method in brief: as §1

human kinome [20] = target: human kinome (Homo sapiens, UniProt P37173); details: kinase TGFBR2 (Entrez TGFBR2); compound concentration 1000 nM; read-out: Percent Control
Method in brief: as §1

human kinome [21] = target: human kinome (Homo sapiens, UniProt Q13131); details: AMPK-alpha1 (Entrez PRKAA1); 100 nM; read-out: Percent Control
Method in brief: as §1

human kinome [22] = target: human kinome (Homo sapiens, UniProt P22694); details: read-out: Percent Control
Method in brief: as §1

human kinome [23] = target: human kinome (Homo sapiens, UniProt Q15835); details: GRK1; 100 nM; read-out: Percent Control
Method in brief: as §1

human kinome [24] = target: human kinome (Homo sapiens, UniProt Q9Y6M4); details: CSNK1G3; 100 nM; read-out: Percent Control
Method in brief: as §1

human kinome [25] = target: human kinome (Homo sapiens, UniProt Q12852); details: DLK (Entrez MAP3K12); 100 nM; read-out: Percent Control
Method in brief: as §1

human kinome [26] = target: human kinome (Homo sapiens, UniProt P09619); details: read-out: Percent Control
Method in brief: as §1

human kinome [27] = target: human kinome (Homo sapiens, UniProt P31152); details: ERK4 (Entrez MAPK4); 100 nM; read-out: Percent Control
Method in brief: as §1

human kinome [28] = target: human kinome (Homo sapiens, UniProt O00506); details: kinase YSK1 (Entrez STK25); compound concentration 1000 nM; read-out: Percent Control
Method in brief: as §1

human kinome [29] = target: human kinome (Homo sapiens, UniProt O95382); details: ASK2 (Entrez MAP3K6); 100 nM; read-out: Percent Control
Method in brief: as §1

human kinome (Homo sapiens, UniProt O75676), sequence (O75676 whole entry): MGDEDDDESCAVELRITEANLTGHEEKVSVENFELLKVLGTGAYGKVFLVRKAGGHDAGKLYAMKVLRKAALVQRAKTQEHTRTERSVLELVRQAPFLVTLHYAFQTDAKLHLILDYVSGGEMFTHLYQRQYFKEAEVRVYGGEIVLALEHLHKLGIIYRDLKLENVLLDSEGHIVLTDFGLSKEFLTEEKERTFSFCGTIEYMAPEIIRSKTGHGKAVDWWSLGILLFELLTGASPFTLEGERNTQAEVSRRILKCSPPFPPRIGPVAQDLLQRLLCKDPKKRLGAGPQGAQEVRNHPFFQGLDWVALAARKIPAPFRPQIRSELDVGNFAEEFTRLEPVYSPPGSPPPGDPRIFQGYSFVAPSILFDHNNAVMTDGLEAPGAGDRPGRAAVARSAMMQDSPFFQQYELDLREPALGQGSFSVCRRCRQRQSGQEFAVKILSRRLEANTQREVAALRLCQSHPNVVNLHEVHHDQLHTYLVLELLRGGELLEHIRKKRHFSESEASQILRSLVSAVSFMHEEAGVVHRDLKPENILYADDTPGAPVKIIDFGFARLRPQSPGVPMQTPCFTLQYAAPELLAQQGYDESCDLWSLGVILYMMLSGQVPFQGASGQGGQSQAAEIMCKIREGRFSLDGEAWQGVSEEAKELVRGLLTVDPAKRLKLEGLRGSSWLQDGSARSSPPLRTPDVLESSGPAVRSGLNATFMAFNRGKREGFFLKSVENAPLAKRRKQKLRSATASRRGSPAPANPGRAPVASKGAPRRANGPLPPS
human kinome (Homo sapiens, UniProt P09619), sequence (P09619 33-1106): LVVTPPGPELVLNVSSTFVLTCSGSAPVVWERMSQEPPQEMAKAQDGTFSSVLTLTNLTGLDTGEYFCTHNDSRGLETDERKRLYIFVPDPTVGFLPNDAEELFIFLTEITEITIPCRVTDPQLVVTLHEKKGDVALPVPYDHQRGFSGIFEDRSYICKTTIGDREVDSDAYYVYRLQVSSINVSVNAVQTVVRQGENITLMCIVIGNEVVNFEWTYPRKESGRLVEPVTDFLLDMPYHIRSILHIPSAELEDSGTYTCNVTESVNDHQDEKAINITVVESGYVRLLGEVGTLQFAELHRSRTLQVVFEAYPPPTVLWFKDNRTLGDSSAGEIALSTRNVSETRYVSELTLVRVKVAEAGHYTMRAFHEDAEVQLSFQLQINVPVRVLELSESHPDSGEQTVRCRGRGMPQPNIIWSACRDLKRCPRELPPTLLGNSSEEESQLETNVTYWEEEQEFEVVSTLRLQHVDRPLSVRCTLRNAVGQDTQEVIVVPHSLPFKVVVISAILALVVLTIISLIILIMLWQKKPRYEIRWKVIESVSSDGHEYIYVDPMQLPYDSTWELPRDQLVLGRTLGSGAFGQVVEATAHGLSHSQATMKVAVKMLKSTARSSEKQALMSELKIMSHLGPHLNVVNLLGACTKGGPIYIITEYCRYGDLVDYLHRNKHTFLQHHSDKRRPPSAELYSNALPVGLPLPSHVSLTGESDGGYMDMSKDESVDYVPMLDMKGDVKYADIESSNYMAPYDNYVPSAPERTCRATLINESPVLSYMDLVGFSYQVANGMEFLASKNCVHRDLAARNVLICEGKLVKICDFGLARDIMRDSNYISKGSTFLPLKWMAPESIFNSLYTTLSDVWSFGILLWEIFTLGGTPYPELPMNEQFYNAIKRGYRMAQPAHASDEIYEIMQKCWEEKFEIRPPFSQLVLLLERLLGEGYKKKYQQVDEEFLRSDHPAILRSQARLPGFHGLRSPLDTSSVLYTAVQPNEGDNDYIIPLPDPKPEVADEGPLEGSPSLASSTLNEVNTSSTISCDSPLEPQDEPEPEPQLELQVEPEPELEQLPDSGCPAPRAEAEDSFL
human kinome (Homo sapiens, UniProt Q9P1W9), sequence (Q9P1W9 whole entry): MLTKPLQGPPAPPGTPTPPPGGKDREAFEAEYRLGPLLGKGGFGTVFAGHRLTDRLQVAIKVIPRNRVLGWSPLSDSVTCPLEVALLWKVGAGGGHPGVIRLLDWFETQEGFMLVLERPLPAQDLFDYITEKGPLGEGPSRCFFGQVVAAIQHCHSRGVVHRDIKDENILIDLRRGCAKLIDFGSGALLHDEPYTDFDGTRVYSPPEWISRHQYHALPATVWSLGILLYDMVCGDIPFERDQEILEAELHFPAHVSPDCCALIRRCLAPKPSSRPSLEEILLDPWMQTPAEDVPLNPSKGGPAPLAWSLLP
human kinome (Homo sapiens, UniProt Q8TD19), sequence (Q8TD19 whole entry): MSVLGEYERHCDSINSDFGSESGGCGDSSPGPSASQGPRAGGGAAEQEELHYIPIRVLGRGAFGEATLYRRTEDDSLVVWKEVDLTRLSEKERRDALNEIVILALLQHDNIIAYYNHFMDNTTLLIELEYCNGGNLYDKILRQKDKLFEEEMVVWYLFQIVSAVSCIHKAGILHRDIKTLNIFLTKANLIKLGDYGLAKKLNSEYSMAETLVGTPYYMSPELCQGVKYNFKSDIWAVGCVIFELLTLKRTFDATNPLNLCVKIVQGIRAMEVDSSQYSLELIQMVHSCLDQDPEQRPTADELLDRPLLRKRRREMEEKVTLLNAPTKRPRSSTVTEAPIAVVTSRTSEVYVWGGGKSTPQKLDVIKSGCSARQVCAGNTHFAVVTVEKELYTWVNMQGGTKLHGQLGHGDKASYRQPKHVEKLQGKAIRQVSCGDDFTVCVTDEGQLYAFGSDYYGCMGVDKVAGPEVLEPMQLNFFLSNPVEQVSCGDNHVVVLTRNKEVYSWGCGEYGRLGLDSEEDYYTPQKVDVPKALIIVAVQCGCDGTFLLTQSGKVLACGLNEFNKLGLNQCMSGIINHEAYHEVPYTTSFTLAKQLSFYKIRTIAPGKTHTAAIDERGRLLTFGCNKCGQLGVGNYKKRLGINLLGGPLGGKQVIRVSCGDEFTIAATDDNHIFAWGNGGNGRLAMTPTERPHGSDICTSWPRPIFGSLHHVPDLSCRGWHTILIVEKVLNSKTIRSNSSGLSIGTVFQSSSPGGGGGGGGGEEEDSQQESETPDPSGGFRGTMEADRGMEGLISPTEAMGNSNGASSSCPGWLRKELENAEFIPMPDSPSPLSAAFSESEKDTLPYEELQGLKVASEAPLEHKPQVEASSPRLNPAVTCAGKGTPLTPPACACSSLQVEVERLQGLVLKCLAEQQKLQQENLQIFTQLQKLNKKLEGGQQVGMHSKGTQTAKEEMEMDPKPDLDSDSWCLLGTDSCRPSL
human kinome (Homo sapiens, UniProt O00444), sequence (O00444 whole entry): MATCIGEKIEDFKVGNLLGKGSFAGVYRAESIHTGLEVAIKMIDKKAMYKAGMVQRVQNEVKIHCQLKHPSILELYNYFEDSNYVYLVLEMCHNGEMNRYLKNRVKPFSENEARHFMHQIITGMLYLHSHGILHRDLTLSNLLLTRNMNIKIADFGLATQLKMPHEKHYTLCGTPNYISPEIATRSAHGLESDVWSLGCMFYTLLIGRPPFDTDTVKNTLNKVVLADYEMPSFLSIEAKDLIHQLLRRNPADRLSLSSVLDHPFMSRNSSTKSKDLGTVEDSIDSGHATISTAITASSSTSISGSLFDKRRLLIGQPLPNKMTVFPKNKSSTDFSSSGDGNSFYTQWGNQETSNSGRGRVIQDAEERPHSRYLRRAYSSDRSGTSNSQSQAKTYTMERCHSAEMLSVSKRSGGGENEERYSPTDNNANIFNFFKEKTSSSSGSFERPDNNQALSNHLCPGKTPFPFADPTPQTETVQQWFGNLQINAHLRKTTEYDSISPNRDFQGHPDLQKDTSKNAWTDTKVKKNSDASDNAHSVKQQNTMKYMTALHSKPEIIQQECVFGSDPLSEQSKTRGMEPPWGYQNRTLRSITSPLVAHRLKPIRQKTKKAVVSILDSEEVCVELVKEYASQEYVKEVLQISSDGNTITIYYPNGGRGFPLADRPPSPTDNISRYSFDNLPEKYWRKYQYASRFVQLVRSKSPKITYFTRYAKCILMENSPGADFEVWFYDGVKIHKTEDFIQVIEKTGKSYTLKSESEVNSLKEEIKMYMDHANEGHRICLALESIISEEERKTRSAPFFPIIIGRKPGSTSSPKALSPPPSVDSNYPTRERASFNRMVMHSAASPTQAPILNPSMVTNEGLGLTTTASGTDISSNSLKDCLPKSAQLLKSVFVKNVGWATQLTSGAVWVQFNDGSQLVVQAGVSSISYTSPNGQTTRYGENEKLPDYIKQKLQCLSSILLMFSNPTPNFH
human kinome (Homo sapiens, UniProt P53350), sequence (P53350 whole entry): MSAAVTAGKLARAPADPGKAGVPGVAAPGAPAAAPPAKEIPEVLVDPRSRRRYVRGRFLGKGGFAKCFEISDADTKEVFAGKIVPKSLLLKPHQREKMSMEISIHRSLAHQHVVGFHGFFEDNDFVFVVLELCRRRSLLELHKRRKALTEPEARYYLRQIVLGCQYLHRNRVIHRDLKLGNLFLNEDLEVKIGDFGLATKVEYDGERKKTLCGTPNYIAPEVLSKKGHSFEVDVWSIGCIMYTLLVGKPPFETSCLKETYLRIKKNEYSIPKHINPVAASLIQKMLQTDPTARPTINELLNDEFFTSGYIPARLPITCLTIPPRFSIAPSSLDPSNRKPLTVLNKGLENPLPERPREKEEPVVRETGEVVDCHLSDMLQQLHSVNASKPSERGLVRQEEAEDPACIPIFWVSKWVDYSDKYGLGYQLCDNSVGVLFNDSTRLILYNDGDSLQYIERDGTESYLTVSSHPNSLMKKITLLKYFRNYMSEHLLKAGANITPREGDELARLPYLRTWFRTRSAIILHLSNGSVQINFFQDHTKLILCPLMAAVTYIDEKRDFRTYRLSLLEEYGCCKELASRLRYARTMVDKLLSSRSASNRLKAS

## COc1cc(F)ccc1-c1cc(Nc2cc(CS(C)(=N)=O)ccn2)ncc1F (stereo not shown) [VIP152]
Human kinome [1]
  remaining binding at 1 µM: 83%
Human kinome [2]
  remaining binding at 0.1 µM: 100%
Human kinome [3]
  remaining binding at 0.1 µM: 100%
Human kinome [4]
  remaining binding at 1 µM: 86%
Human kinome [5]
  remaining binding at 1 µM: 79%
Human kinome [6]
  remaining binding at 1 µM: 98%
Human kinome [7]
  remaining binding at 0.1 µM: 73%
Human kinome [8]; PIM2, 100 nM
  remaining binding at 0.1 µM: 100%
Human kinome [8]; kinase PIM2 (Entrez PIM2), compound concentration 1000 nM
  remaining binding at 1 µM: 100%
Human kinome [9]
  remaining binding at 0.1 µM: 100%
Human kinome [10]; NLK, 100 nM
  remaining binding at 0.1 µM: 100%
Human kinome [10]; kinase NLK (Entrez NLK), compound concentration 1000 nM
  remaining binding at 1 µM: 59%
Human kinome [11]
  remaining binding at 0.1 µM: 97%
Human kinome [12]
  remaining binding at 0.1 µM: 100%
Human kinome [13]; PLK4, 100 nM
  remaining binding at 0.1 µM: 100%
Human kinome [13]; kinase PLK4 (Entrez PLK4), compound concentration 1000 nM
  remaining binding at 1 µM: 79%
Human kinome [14]
  remaining binding at 0.1 µM: 100%
Human kinome [15]
  remaining binding at 1 µM: 100%
Human kinome [16]
  remaining binding at 0.1 µM: 100%
Human kinome [17]; NEK9, 100 nM
  remaining binding at 0.1 µM: 100%
Human kinome [17]; kinase NEK9 (Entrez NEK9), compound concentration 1000 nM
  remaining binding at 1 µM: 93%
Human kinome [18]; PLK1, 100 nM
  remaining binding at 0.1 µM: 100%
Human kinome [18]; kinase PLK1 (Entrez PLK1), compound concentration 1000 nM
  remaining binding at 1 µM: 89%
Human kinome [19]; kinase RPS6KA4(Kin.Dom.1-N-terminal) (Entrez RPS6KA4)
  remaining binding at 1 µM: 85%
Human kinome [19]; kinase RPS6KA4(Kin.Dom.2-C-terminal) (Entrez RPS6KA4)
  remaining binding at 1 µM: 71%
Human kinome [20]
  remaining binding at 1 µM: 93%
Human kinome [21]
  remaining binding at 0.1 µM: 89%
Human kinome [22]; PKAC-beta (Entrez PRKACB), 100 nM
  remaining binding at 0.1 µM: 100%
Human kinome [22]; kinase PKAC-beta (Entrez PRKACB), compound concentration 1000 nM
  remaining binding at 1 µM: 94%
Human kinome [23]
  remaining binding at 0.1 µM: 95%
Human kinome [24]
  remaining binding at 0.1 µM: 98%
Human kinome [25]
  remaining binding at 0.1 µM: 100%
Human kinome [26]; PDGFRB, 100 nM
  remaining binding at 0.1 µM: 100%
Human kinome [26]; kinase PDGFRB (Entrez PDGFRB), compound concentration 1000 nM
  remaining binding at 1 µM: 71%
Human kinome [27]
  remaining binding at 0.1 µM: 100%
Human kinome [28]
  remaining binding at 1 µM: 100%
Human kinome [29]
  remaining binding at 0.1 µM: 100%
